Test results published in patent publication US10632106B2, “Methods of cancer treatment with 2-(1′H-Indole-3′-carbonyl)-thiazole-4-carboxylic acid methyl ester” (Ariagen, Inc., priority 2009, dated 2020).

How the values were obtained:
Format in all cases: in vivo
[1] = tested on: Siha (human cervical cancer) xenografts; test: Siha xenograft growth inhibition; conditions: ITE 100-200 mg/kg i.p. once daily
Protocol: (§1) All the procedures related to animal handling, care, and the treatment in the study were performed following guidelines of KeyGen Biotechn Co., Ltd. (Nanjing, China), a contract research organization we hired, based on the guidance of the Association for Assessment and Accreditation of Laboratory Animal Care (AAALAC). Animals were checked for any effects of tumor growth and drug treatment on normal behavior such as mobility, food and water consumption, body weight gain/loss (bodyweights were measured every two days), eye/hair matting, and any other abnormal effect. Death and observed clinical signs were recorded. Individual animals with a tumor volume exceeding 3,000 mm^3 or animals of a group with a mean tumor volume exceeding 2,000 mm^3 were euthanized. In addition, animals showing signs of severe distress and/or pain or losing the capability of accessing adequate food or water were humanely sacrificed.
Cell lines HCT116, Siha, MFC were cultured in DMEM medium (high glucose) supplemented with 10% fetal bovine serum (FBS), SW116 and T24 in RPMI-1640 medium with 10% FBS, M14 and A375 in DMEM medium (high glucose) with 10% calf serum (CS), SGC7901 and Ketr-3 in RPMI-1640 medium with 10% CS, and CFPAC-1 in IMDM medium with 10% FBS. All of the cells were cultured, in the presence of 100 U/ml penicillin and 100 μg/ml streptomycin, at 37° C. in an atmosphere of 5% CO2 in air. […] The cells growing in an exponential phase were harvested and counted for tumor inoculation. Cell lines 5180 and U14 were maintained in ascites (peritoneal cavity fluid) of mice and were harvested and counted for tumor inoculation. […]
Tumor volume was measured every two days in two dimensions using a caliper and the volume was calculated with a formula of: V=0.5 a×b^2, where a and b are the long and short diameter (in mm) of a tumor, respectively. […] The TGD was calculated as: TGD=T−C, where T was the time (in days) required for tumors in a drug treated group to reach a predetermined mean tumor volume and C the time (in days) in the control group to reach the same volume. […]

[2] = tested on: Murine Lewis lung cancer cell line LLC tumors; test: Syngeneic murine Lewis lung cancer (LLC) model in C57BL/6 mice; conditions: for TGI (Tumor Growth Inhibition): TGI=ΔT/ΔC×100%
Protocol: All the procedures related to animal handling, care, and the treatment in the study were performed following guidelines approved by an Institutional Animal Care and Use Committee (IACUC) of Crown Bioscience, Inc. (Santa Clara, Calif., USA, a contract research organization we hired) based on the guidance of the Association for Assessment and Accreditation of Laboratory Animal Care (AAALAC). Animals were checked for any effects of tumor growth and drug treatment on normal behavior such as mobility, food and water consumption, body weight gain/loss (gross body weights were measured twice weekly), eye/hair matting, and any other abnormal effect. Death and observed clinical signs were recorded on the basis of the number of animals within each group. Individual animals with a tumor volume exceeding 3,000 mm^3 or animals of a group with a mean tumor volume exceeding 2,000 mm^3 were euthanized. In addition, animals showing signs of severe distress and/or pain, dropping body weight more than 20% from that at the start of treatment, or losing the capability of accessing adequate food or water were humanely sacrificed.
Tumor volume was measured twice weekly in two dimensions using a caliper and the volume was calculated with a formula of: V=0.5 a×b^2, where a and b are the long and short diameter (in mm) of a tumor, respectively. The tumor volume was then used for calculations of both TGI (Tumor Growth Inhibition) and TGD (Tumor Growth Delay). The TGI was determined by: TGI=ΔT/ΔC×100%, where ΔT was a difference between the mean tumor volume at a specified day of observation and that at the day treatment starts (day 1) for a drug treated group whereas ΔC was the same difference measured for the control group. The TGD was calculated as: TGD=T−C, where T was the time (in days) required for tumors in a drug treated group to reach a predetermined mean tumor volume and C the time (in days) in the control group to reach the same volume. A tumor weight was derived by equating 1,000 mm^3 in volume to 1,000 mg in weight. A net body weight was then derived by subtracting a tumor weight from a corresponding gross body weight with the tumor.
Summary statistics, including mean and the standard error of the mean (SEM), are provided for the tumor volume of each group at each time point. Statistical analysis of difference in tumor volume among groups was conducted on a data set either at the best therapeutic time point or at the final dosing day as indicated. The tumor volume data were log-transformed and evaluated using a one-way ANOVA followed by Tukey's test when significance was observed. All data were analyzed using SPSS 16.0 and p<0.05 was considered to be statistically significant.
Murine Lewis lung cancer cell line LLC (ATCC) was cultured as described for LNCaP in Example 1 except DMEM, instead of RPMI-1640, medium being used. Each female C57BL/6 mice, 6 to 8 weeks of age, was inoculated with 3×10^5 LLC cells in 0.1 ml of PBS for tumor development. ITE treatment was started when a mean tumor volume reached 80 to 120 mm^3. All the other materials and methodologies were the same as that described in Example 1.

[3] = Mouse cancer model studies of Example 5, all models: animal death; conditions: any model, entire therapies; with oral gavage of 20 ml/kg water
Protocol: as §1
Each mouse was inoculated subcutaneously in right armpit with about 1×10^6 cells in 0.1 ml of PBS for tumor development. While cells of human in origin were inoculated into female BALB/c nude mice, MFC cells were inoculated into female 615 mice and U14 and 5180 cells into female ICR mice. When a mean tumor volume reached 50 to 150 mm^3 as indicated, the tumor-bearing mice were divided randomly into vehicle control and ITE treatment group. […]

With `COC(=O)c1csc(C(=O)c2c[nH]c3ccccc23)n1` [ITE, 2-(1′H-indole-3′-carbonyl)-thiazole-4-carboxylic acid methyl ester] the TGD ([1]; TGD at Vol. 1,000) was 7 days, the “TGI (%)” value ([1]; TGI at day 24, TGI=(1−ΔT/ΔC)×100%) was 53% and the “Weight Loss” value ([1]; end of therapy relative to beginning) was 19%. For the same molecule, the “TGI (Tumor Growth Inhibition)” value ([2]; 20 mg/kg b.w. i.p. once daily, day 15) was 65%, the “tolerability by body weight change monitoring” value ([2]; 80 mg/kg b.w. i.p. once daily) was “tolerated well” and the “tumor elimination in one mouse of the ITE group (mouse No. 33)” value ([2]; 80 mg/kg b.w. i.p. once daily for 28 days, stayed tumor free for one more month of observation) was “its tumor was no longer palpable at day 13”. The “TGD (Tumor Growth Delay)” value ([2]; 80 mg/kg b.w. i.p. once daily, at a tumor volume of 1000 mm^3) was 7 days, the “TGI (Tumor Growth Inhibition)” value ([2]; 80 mg/kg b.w. i.p. once daily, day 20) was 42% and the “animal death in ITE treatment group” value [3] was “no single animal death”.
